Reference: patent publication US9040530B2, “1,2,4-triazine-6-carboxamide kinase inhibitors” (Portola Pharmaceuticals, Inc., priority 2012, dated 2015)

Molecular target: T1, full length active recombinant SYK enzyme (Homo sapiens, UniProt P43405)
T1 construct: full length active recombinant SYK enzyme (Millipore, Calif.); purchased Millipore
Assay: Inhibition of Syk tyrosine phosphorylation activity (LANCE TR-FRET kinase assay)
Format: biochemical
Details: 1 nM active SYK enzyme, 550 nM SYK-substrate, 100 μM ATP, 1 hour at room temperature

SMILES	IC50
CC(C)C[C@@H](Nc1nnc(C(N)=O)c(Nc2cccc3c2cnn3C)n1)C(N)=O [Example 108, (R)-3-((1-amino-4-methyl-1-oxopentan-2-yl)amino)-5-((1-methyl-1H-indazol-4-yl)amino)-1,2,4-triazine-6-carboxamide]	0.01 to 0.1 µM
CC[C@@H](Nc1nnc(C(N)=O)c(Nc2cncs2)n1)C(N)=O [Example 199, (R)-3-((1-amino-1-oxobutan-2-yl)amino)-5-(thiazol-5-ylamino)-1,2,4-triazine-6-carboxamide]	0.1 to 1 µM
NC(=O)c1nnc(N[C@@H]2CCCC(F)(F)[C@@H]2N)nc1Nc1ccc2ncsc2c1 [Example 43, 3-(((1R,2R)-2-amino-3,3-difluorocyclohexyl)amino)-5-(benzo[d]thiazol-6-ylamino)-1,2,4-triazine-6-carboxamide]	0.01 to 0.1 µM
Cn1ncc2c(Nc3nc(N[C@@H]4CCCC[C@@H]4N)nnc3C(N)=O)ccnc21 [Example 104, 3-(((1R,2S)-2-aminocyclohexyl)amino)-5-((1-methyl-1H-pyrazolo[3,4-b]pyridin-4-yl)amino)-1,2,4-triazine-6-carboxamide]	0.01 to 0.1 µM
CC[C@@H](Nc1nnc(C(N)=O)c(Nc2ccc3c(c2)COC3)n1)C(N)=O [Example 215, (R)-3-((1-amino-1-oxobutan-2-yl)amino)-5-((1,3-dihydroisobenzofuran-5-yl)amino)-1,2,4-triazine-6-carboxamide]	0.01 to 0.1 µM
NC(=O)c1nnc(N[C@H](CC(F)F)C(N)=O)nc1Nc1ccc2ncccc2c1 [Example 150, (R)-3-((1-amino-4,4-difluoro-1-oxobutan-2-yl)amino)-5-(quinolin-6-ylamino)-1,2,4-triazine-6-carboxamide]	0.001 to 0.01 µM
CC(C)C[C@@H](Nc1nnc(C(N)=O)c(Nc2cccc3c2ccn3C)n1)C(N)=O [Example 88, (R)-3-((1-amino-4-methyl-1-oxopentan-2-yl)amino)-5-((1-methyl-1H-indol-4-yl)amino)-1,2,4-triazine-6-carboxamide]	0.001 to 0.01 µM
CN(C)C(=O)c1ccc(Nc2nc(N[C@@H]3CCCC[C@@H]3N)nnc2C(N)=O)cn1 [Example 65, 3-(((1R,2S)-2-aminocyclohexyl)amino)-5-((6-(dimethylcarbamoyl)pyridin-3-yl)amino)-1,2,4-triazine-6-carboxamide]	> 1 µM
CC[C@@H](Nc1nnc(C(N)=O)c(Nc2ccc(C(F)(F)F)c(Cl)c2)n1)C(N)=O [Example 241, (R)-3-((1-amino-1-oxobutan-2-yl)amino)-5-((3-chloro-4-(trifluoromethyl)phenyl)amino)-1,2,4-triazine-6-carboxamide]	0.01 to 0.1 µM
NC(=O)c1nnc(N[C@@H]2CCCC[C@@H]2N)nc1Nc1cnc2ncccc2c1 [Example 45, 5-((1,8-naphthyridin-3-yl)amino)-3-(((1R,2S)-2-aminocyclohexyl)amino)-1,2,4-triazine-6-carboxamide]	0.01 to 0.1 µM
CC[C@@H](Nc1nnc(C(N)=O)c(Nc2cccc(-n3nccn3)c2)n1)C(N)=O [Example 86, (R)-5-((3-(2H-1,2,3-triazol-2-yl)phenyl)amino)-3-((1-amino-1-oxobutan-2-yl)amino)-1,2,4-triazine-6-carboxamide]	0.1 to 1 µM
CC[C@@H](Nc1nnc(C(N)=O)c(Nc2cccc3c2ccn3C)n1)C(N)=O [Example 80, (R)-3-((1-amino-1-oxobutan-2-yl)amino)-5-((1-methyl-1H-indol-4-yl)amino)-1,2,4-triazine-6-carboxamide]	0.001 to 0.01 µM
CC[C@@H](Nc1nnc(C(N)=O)c(Nc2ccc(C)c(C#N)c2)n1)C(N)=O [Example 234, (R)-3-((1-amino-1-oxobutan-2-yl)amino)-5-((3-cyano-4-methylphenyl)amino)-1,2,4-triazine-6-carboxamide]	0.1 to 1 µM
Cn1cc(C#N)c2ccc(Nc3nc(N[C@H](CC4CC4)C(N)=O)nnc3C(N)=O)cc21 [Example 178, (R)-3-((1-amino-3-cyclopropyl-1-oxopropan-2-yl)amino)-5-((3-cyano-1-methyl-1H-indol-6-yl)amino)-1,2,4-triazine-6-carboxamide]	0.001 to 0.01 µM
NC(=O)c1nnc(N[C@@H]2CCCC[C@@H]2N)nc1Nc1ccc(C(=O)N2CCC2)cc1 [Example 63, 3-(((1R,2S)-2-aminocyclohexyl)amino)-5-((4-(azetidine-1-carbonyl)phenyl)amino)-1,2,4-triazine-6-carboxamide]	0.01 to 0.1 µM
CC(C)C[C@@H](Nc1nnc(C(N)=O)c(Nc2ccc3c(cnn3C)c2)n1)C(N)=O [Example 111, (R)-3-((1-amino-4-methyl-1-oxopentan-2-yl)amino)-5-((1-methyl-1H-indazol-5-yl)amino)-1,2,4-triazine-6-carboxamide]	0.001 to 0.01 µM
Cc1ccc(Nc2nc(N[C@H](CC3CC3)C(N)=O)nnc2C(N)=O)cc1C [Example 210, (R)-3-((1-amino-3-cyclopropyl-1-oxopropan-2-yl)amino)-5-((3,4-dimethylphenyl)amino)-1,2,4-triazine-6-carboxamide]	0.001 to 0.01 µM
Cn1ccc2c(Nc3nc(N[C@@H]4CCCC[C@@H]4N)nnc3C(N)=O)cncc21 [Example 148, 3-(((1R,2S)-2-aminocyclohexyl)amino)-5-((1-methyl-1H-pyrrolo[2,3-c]pyridin-4-yl)amino)-1,2,4-triazine-6-carboxamide]	0.001 to 0.01 µM
CC(C)C[C@@H](Nc1nnc(C(N)=O)c(Nc2ccc3ncccc3c2)n1)C(N)=O [Example 53, (R)-3-((1-amino-4-methyl-1-oxopentan-2-yl)amino)-5-(quinolin-6-ylamino)-1,2,4-triazine-6-carboxamide]	0.001 to 0.01 µM
NC(=O)c1nnc(N[C@@H]2CCCC[C@@H]2N)nc1Nc1cccc(-n2cncn2)c1 [Example 5, 5-((3-(1H-1,2,4-triazol-1-yl)phenyl)amino)-3-(((1R,2S)-2-aminocyclohexyl)amino)-1,2,4-triazine-6-carboxamide]	0.001 to 0.01 µM
Cc1ccc(Nc2nc(N[C@H](CC(F)F)C(N)=O)nnc2C(N)=O)cc1 [Example 143, (R)-3-((1-amino-4,4-difluoro-1-oxobutan-2-yl)amino)-5-(p-tolylamino)-1,2,4-triazine-6-carboxamide]	0.01 to 0.1 µM
Cn1ccc2c(Nc3nc(N[C@@H]4CCCC(F)(F)[C@@H]4N)nnc3C(N)=O)cccc21 [Example 94, 3-(((1R,2R)-2-amino-3,3-difluorocyclohexyl)amino)-5-((1-methyl-1H-indol-4-yl)amino)-1,2,4-triazine-6-carboxamide]	0.001 to 0.01 µM

Next, values leading:

IC50	SMILES
0.001 to 0.01 µM	NC(=O)c1nnc(N[C@@H]2CCCC[C@@H]2N)nc1Nc1ccc2scnc2c1 [Example 41, 3-(((1R,2S)-2-aminocyclohexyl)amino)-5-(benzo[d]thiazol-5-ylamino)-1,2,4-triazine-6-carboxamide]
0.001 to 0.01 µM	Cn1ncc2cc(Nc3nc(N[C@@H]4CCCC[C@@H]4N)nnc3C(N)=O)ccc21 [Example 109, 3-(((1R,2S)-2-aminocyclohexyl)amino)-5-((1-methyl-1H-indazol-5-yl)amino)-1,2,4-triazine-6-carboxamide]
0.001 to 0.01 µM	Cc1cc(Nc2nc(N[C@@H]3CCCC[C@@H]3N)nnc2C(N)=O)ccc1F [Example 26, 3-(((1R,2S)-2-aminocyclohexyl)amino)-5-((4-fluoro-3-methylphenyl)amino)-1,2,4-triazine-6-carboxamide]
0.01 to 0.1 µM	CC[C@@H](Nc1nnc(C(N)=O)c(Nc2ccc(OC)c(Cl)c2)n1)C(N)=O [Example 174, (R)-3-((1-amino-1-oxobutan-2-yl)amino)-5-((3-chloro-4-methoxyphenyl)amino)-1,2,4-triazine-6-carboxamide]
< 0.001 µM	Cc1cccc(Nc2nc(N[C@@H]3CCCC[C@@H]3N)nnc2C(N)=O)c1 [Example 11, 3-(((1R,2S)-2-aminocyclohexyl)amino)-5-(m-tolylamino)-1,2,4-triazine-6-carboxamide]
0.01 to 0.1 µM	COc1cc(Nc2nc(N[C@@H]3CCOC[C@@H]3N)nnc2C(N)=O)ccc1Cl [Example 256, 3-(((3R,4R)-3-aminotetrahydro-2H-pyran-4-yl)amino)-5-((4-chloro-3-methoxyphenyl)amino)-1,2,4-triazine-6-carboxamide]
0.01 to 0.1 µM	NC(=O)c1nnc(N[C@@H]2CCCC(F)(F)[C@@H]2N)nc1Nc1cccc(Cl)c1 [Example 201, 3-(((1R,2R)-2-amino-3,3-difluorocyclohexyl)amino)-5-((3-chlorophenyl)amino)-1,2,4-triazine-6-carboxamide]
0.01 to 0.1 µM	NC(=O)c1nnc(N[C@H](CC2CC2)C(N)=O)nc1Nc1ccc(Cl)c(Cl)c1 [Example 254, (R)-3-((1-amino-3-cyclopropyl-1-oxopropan-2-yl)amino)-5-((3,4-dichlorophenyl)amino)-1,2,4-triazine-6-carboxamide]
0.001 to 0.01 µM	NC(=O)c1nnc(N[C@@H]2CCOC[C@@H]2N)nc1Nc1ccc2ncccc2c1 [Example 55, 3-(((3R,4R)-3-aminotetrahydro-2H-pyran-4-yl)amino)-5-(quinolin-6-ylamino)-1,2,4-triazine-6-carboxamide]
0.01 to 0.1 µM	NC(=O)c1nnc(N[C@@H]2CCOC[C@@H]2N)nc1Nc1ccc(C(F)(F)F)cc1 [Example 242, 3-(((3R,4R)-3-aminotetrahydro-2H-pyran-4-yl)amino)-5-((4-(trifluoromethyl)phenyl)amino)-1,2,4-triazine-6-carboxamide]
0.001 to 0.01 µM	NC(=O)c1nnc(N[C@@H]2CCOC[C@@H]2N)nc1Nc1cccc(-n2nccn2)c1 [Example 85, 5-((3-(2H-1,2,3-triazol-2-yl)phenyl)amino)-3-(((3R,4R)-3-aminotetrahydro-2H-pyran-4-yl)amino)-1,2,4-triazine-6-carboxamide]
0.01 to 0.1 µM	NC(=O)c1nnc(N[C@@H]2CCOC[C@@H]2N)nc1Nc1ccccc1 [Example 95, 3-(((3R,4R)-3-aminotetrahydro-2H-pyran-4-yl)amino)-5-(phenylamino)-1,2,4-triazine-6-carboxamide]
